Results taken from US20090269365A1, “IMMUNOGENIC VACCINIA PEPTIDES AND METHODS OF USING SAME” (priority 2005, published 2009).

Legend:
Assay type in all cases: cell-based, human
[1] = system: vaccinia-specific CD8 CTL clones; conditions: read-out: EC50 in CTL assays
[2] = system: bulk vaccinia-specific CD8 CTL
CD4+ T-cells = conditions: humans, Example 2
[3] = system: bulk vaccinia-specific CD8 CTL; remark: listed apart in the source

Question: How did the EC50 [1] turn out when EEQELLLLY [F3 41-49] was run?
Answer: Its EC50 is roughly 0.01 µM.

Question: What about the “IFN-γ secretion by bulk CTL, in words” value [2] of the same sequence?
Answer: The value was “again detectable”.

Question: KIQNVIIDECY [L1R 127-137] was tested. Which “CD4+ T-cell reactivity, in words” value (CD4+ T-cells) did it give?
Answer: Its value is “reacts with CD4+ T-cells”.

Question: With NPITKTTSDYQDSDVSQEVR [A33R 157-176] as the sequence, how does the “CD4+ T-cell reactivity, in words” value (CD4+ T-cells) read?
Answer: The value was “containing the epitope”.

Question: With TKTTSDYQDSDVSQ [A33R 160-173] as the sequence, how does the “CD4+ T-cell reactivity, in words” value (CD4+ T-cells) read?
Answer: The value was “epitope region has been further narrowed down”.

Question: With VWINNSWKF [D5R 349-357] as the sequence, how does the “IFN-γ ICC response relative to DMSO background, in words” value [3] read?
Answer: The value was “detection of IFN-γ-bright cells at a level above the background”.

Question: What does the source list for WLKIKRDYL [A50R 395-403]?
Answer: net ICC response (peptide minus DMSO) [3]: ~1.55%; percentage of bulk CTL positive for IFN-γ by ICC [3]: 2.95%

Question: How did the “IFN-γ ICC response relative to DMSO background, in words” value [3] turn out when YEFRKVKSY [A3L 264-272] was run?
Answer: Its value is “positive”.

Question: And the “IFN-γ secretion by bulk CTL, in words” value [2]?
Answer: The value was “positive”.
